Test results published in patent US6544991B2, “Compositions and methods for treating bacterial infections” (priority 2000, dated 2003).
Like-named read-outs stand apart in the source and are kept apart here. Each block holds one molecule with its values, some of them ahead of it.

Experiments:
[1] = tested on: VRSA strains; assay: MIC by agar dilution or microbroth dilution method (NCCLS), VRSA strains; type: cell-based, Staph. aureus; conditions: VRSA strains (n = 10); for MIC: Staphylococcus aureus
Method: (§1) Bacterial isolates were obtained from human infections. The isolates were maintained frozen in a liquid nitrogen freezer and plated on Trypticase Soy Agar (TSA) plates supplemented with 5% sheep blood. The quality control strain Staph. aureus 29213 was originally acquired from the American Type Culture Collection (Rockville, Md.).
(§2) MICs were determined by an agar dilution method or microbroth dilution method recommended by NCCLS. Synergy was assessed by agar dilution checker-board method. Minimal inhibitory concentrations (MICS) for each separate drug were determined. The fractional inhibitory concentration (FIC) values were calculated by the MIC of Drug A (e.g., sulbactam/ampicillin) and Drug B (e.g., linezolid or arbekacin) in combination/MIC of Drug A or B alone. The FIC index was determined according to the following formula: [formula]
In total, 48 MRSA strains were tested, including ten VRSA strains isolated from five different countries in the world, 33 MRSA strains isolated from ten Japanese university hospitals, and five MRSA type strains from Juntendo University, Department of Bacteriology, Tokyo, Japan.

[2] = tested on: MRSA strains; assay: MIC by agar dilution or microbroth dilution method (NCCLS); type: cell-based, Staph. aureus; set-up: MIC50: unit not given beside the values; conditions: for MIC: Staphylococcus aureus
Method: as §1, §2

[3] = tested on: Staph. aureus 29213; assay: MIC, quality control strain; type: cell-based; conditions: Staphylococcus aureus, read-out: MIC Values
Method: as §1, §2

[4] = MRSA / NCTC 10442, strain NCTC 10442, read-out: MIC Values
[5] = MRSA, MRSA strains (n = 38), read-out: MICs 50%
[6] = MRSA, MRSA strains (n = 38), read-out: MICs 90%
[7] = MRSA, strain 85/2082, read-out: MIC Values
[8] = MRSA, strain 99.3700W, read-out: MIC Values
[9] = MRSA, strain 99.3759V, read-out: MIC Values
[10] = MRSA, strain AMC 11094, read-out: MIC Values
[11] = MRSA, strain BM12612(new), read-out: MIC Values
[12] = MRSA, strain H1, read-out: MIC Values
[13] = MRSA, strain HIP 5827, read-out: MIC Values
[14] = MRSA, strain HIP 5836, read-out: MIC Values
[15] = MRSA, strain HIP 6297, read-out: MIC Values
[16] = MRSA, strain HIP 7737, read-out: MIC Values
[17] = MRSA, strain JSCC 340, read-out: MIC Values
[18] = MRSA, strain JSCC 351, read-out: MIC Values
[19] = MRSA, strain JSCC 363, read-out: MIC Values
[20] = MRSA, strain JSCC 381, read-out: MIC Values
[21] = MRSA, strain JSCC 390, read-out: MIC Values
[22] = MRSA, strain JSCC 401, read-out: MIC Values
[23] = MRSA, strain JSCC 413, read-out: MIC Values
[24] = MRSA, strain JSCC 431, read-out: MIC Values
[25] = MRSA, strain JSCC 440, read-out: MIC Values
[26] = MRSA, strain JSCC 451, read-out: MIC Values
[27] = MRSA, strain JSCC 463, read-out: MIC Values
[28] = MRSA, strain JSCC 481, read-out: MIC Values
[29] = MRSA, strain JSCC 490, read-out: MIC Values
[30] = MRSA, strain JSCC 501, read-out: MIC Values
[31] = MRSA, strain JSCC 513, read-out: MIC Values
[32] = MRSA, strain JSCC 531, read-out: MIC Values
[33] = MRSA, strain JSCC 540, read-out: MIC Values
[34] = MRSA, strain JSCC 551, read-out: MIC Values
[35] = MRSA, strain JSCC 563, read-out: MIC Values
[36] = MRSA, strain JSCC 581 (lacks the mecA gene), read-out: MIC Values
[37] = MRSA, strain JSCC 590 (lacks the mecA gene), read-out: MIC Values
[38] = MRSA, strain JSCC 601, read-out: MIC Values
[39] = MRSA, strain JSCC 640, read-out: MIC Values
[40] = MRSA, strain JSCC 651, read-out: MIC Values
[41] = MRSA, strain JSCC 663, read-out: MIC Values
[42] = MRSA, strain JSCC 681, read-out: MIC Values
[43] = MRSA, strain JSCC 690, read-out: MIC Values
[44] = MRSA, strain JSCC 701, read-out: MIC Values
[45] = MRSA, strain JSCC 713, read-out: MIC Values
[46] = MRSA, strain JSCC 731, read-out: MIC Values
[47] = MRSA, strain JSCC 740, read-out: MIC Values
[48] = MRSA, strain JSCC 751, read-out: MIC Values
[49] = MRSA, strain JSCC 763, read-out: MIC Values
[50] = MRSA, strain JSCC 781, read-out: MIC Values
[51] = MRSA, strain JSCC 870, read-out: MIC Values
[52] = MRSA, strain LIM 2, read-out: MIC Values
[53] = MRSA, strain Mu 3, read-out: MIC Values
[54] = MRSA, strain Mu 50, read-out: MIC Values
[55] = ATCC29213, strain ATCC 29213, control sample (Ex. 26)
[56] = ATCC29213, strain ATCC29213, control sample (Ex. 37)

MIC ([1]; read-out: MICs 50%): 1 µg/mL | MIC ([1]; read-out: MICs 90%): 4 µg/mL | MICs Range [1]: 0.125 to 4 mg/L | MICs Range ([2]; MRSA strains (n = 38)): 0.125 to 4 mg/L | MIC [2, 4]: 0.125 µg/mL | MIC [2, 5]: 0.5 µg/mL | MIC [2, 6]: 2 µg/mL | MIC [2, 7]: 0.25 µg/mL | MIC [2, 8]: 4 µg/mL | MIC [2, 9]: 2 µg/mL | MIC [2, 10]: 0.25 µg/mL | MIC [2, 11]: 2 µg/mL | MIC [2, 12]: 1 µg/mL | MIC [2, 13]: 1 µg/mL | MIC [2, 14]: 1 µg/mL | MIC [2, 15]: 0.125 µg/mL | MIC [2, 16]: 0.125 µg/mL | MIC [2, 17]: 1 µg/mL | MIC [2, 18]: 1 µg/mL | MIC [2, 19]: 1 µg/mL | MIC [2, 20]: 0.5 µg/mL | MIC [2, 21]: 0.5 µg/mL | MIC [2, 22]: 0.5 µg/mL | MIC [2, 23]: 1 µg/mL | MIC [2, 24]: 1 µg/mL | MIC [2, 25]: 0.25 µg/mL | MIC [2, 26]: 4 µg/mL | MIC [2, 27]: 0.5 µg/mL | MIC [2, 28]: 1 µg/mL | MIC [2, 29]: 0.5 µg/mL | MIC [2, 30]: 0.5 µg/mL | MIC [2, 31]: 0.25 µg/mL | MIC [2, 32]: 0.5 µg/mL | MIC [2, 33]: 1 µg/mL | MIC [2, 34]: 2 µg/mL | MIC [2, 35]: 0.125 µg/mL | MIC [2, 36]: 0.5 µg/mL | MIC [2, 37]: 0.25 µg/mL | MIC [2, 38]: 0.25 µg/mL | MIC [2, 39]: 2 µg/mL | MIC [2, 40]: 1 µg/mL | MIC [2, 41]: 0.5 µg/mL | MIC [2, 42]: 1 µg/mL | MIC [2, 43]: 2 µg/mL | MIC [2, 44]: 1 µg/mL | MIC [2, 45]: 2 µg/mL | MIC [2, 46]: 0.5 µg/mL | MIC [2, 47]: 0.125 µg/mL | MIC [2, 48]: 2 µg/mL | MIC [2, 49]: 0.25 µg/mL | MIC [2, 50]: 2 µg/mL | MIC [2, 51]: 0.5 µg/mL | MIC [2, 52]: 1 µg/mL | MIC [2, 53]: 2 µg/mL | MIC [2, 54]: 4 µg/mL | MIC ([2]; MRSA, strain N315, read-out: MIC Values): 0.5 µg/mL | MIC [3, 55]: 0.25 µg/mL | MIC [3, 56]: 0.25 µg/mL
SMILES: NCC[C@H](O)C(=O)N[C@@H]1C[C@H](N)[C@@H](O[C@H]2O[C@H](CN)CC[C@H]2N)[C@H](O)[C@H]1O[C@H]1O[C@H](CO)[C@@H](O)[C@H](N)[C@H]1O [ABK, arbekacin]

SMILES: CC(=O)NC[C@H]1CN(c2ccc(N3CCOCC3)c(F)c2)C(=O)O1 [LZD, (S)-N-[[3-[3-fluoro-4-(4-morpholinyl)phenyl]-2-oxo-5-oxazolidinyl]methyl]acetamide]
MIC ([1]; read-out: MICs 50%): 2 µg/mL | MIC ([1]; read-out: MICs 90%): 2 µg/mL | MICs Range [1]: 1 to 2 mg/L | MIC50 ([2]; 48 MRSA strains tested, including ten VRSA strains): 2 | MICs Range ([2]; MRSA strains (n = 38)): 0.5 to 2 mg/L | MIC [2, 4]: 2 µg/mL | MIC [2, 5]: 2 µg/mL | MIC [2, 6]: 2 µg/mL | MIC [2, 7]: 2 µg/mL | MIC [2, 8]: 2 µg/mL | MIC [2, 9]: 2 µg/mL | MIC [2, 10]: 2 µg/mL | MIC [2, 11]: 2 µg/mL | MIC [2, 12]: 2 µg/mL | MIC [2, 13]: 2 µg/mL | MIC [2, 14]: 2 µg/mL | MIC [2, 15]: 2 µg/mL | MIC [2, 16]: 2 µg/mL | MIC [2, 17]: 2 µg/mL | MIC [2, 18]: 2 µg/mL | MIC [2, 19]: 2 µg/mL | MIC [2, 20]: 2 µg/mL | MIC [2, 21]: 2 µg/mL | MIC [2, 22]: 2 µg/mL | MIC [2, 23]: 2 µg/mL | MIC [2, 24]: 2 µg/mL | MIC [2, 25]: 2 µg/mL | MIC [2, 26]: 2 µg/mL | MIC [2, 27]: 2 µg/mL | MIC [2, 28]: 2 µg/mL | MIC [2, 29]: 2 µg/mL | MIC [2, 30]: 2 µg/mL | MIC [2, 31]: 1 µg/mL | MIC [2, 32]: 1 µg/mL | MIC [2, 33]: 1 µg/mL | MIC [2, 34]: 2 µg/mL | MIC [2, 35]: 1 µg/mL | MIC [2, 36]: 2 µg/mL | MIC [2, 37]: 2 µg/mL | MIC [2, 38]: 1 µg/mL | MIC [2, 39]: 1 µg/mL | MIC [2, 40]: 2 µg/mL | MIC [2, 41]: 2 µg/mL | MIC [2, 42]: 0.5 µg/mL | MIC [2, 43]: 1 µg/mL | MIC [2, 44]: 1 µg/mL | MIC [2, 45]: 2 µg/mL | MIC [2, 46]: 1 µg/mL | MIC [2, 47]: 2 µg/mL | MIC [2, 48]: 2 µg/mL | MIC [2, 49]: 2 µg/mL | MIC [2, 50]: 2 µg/mL | MIC [2, 51]: 2 µg/mL | MIC [2, 52]: 1 µg/mL | MIC [2, 53]: 2 µg/mL | MIC [2, 54]: 2 µg/mL | susceptibility (range of MICs) ([2]; all tested MRSA isolates, including VRSA strains): susceptible range of MICs | MIC [3, 55]: 2 µg/mL | MIC [3, 56]: 2 µg/mL
